# Laboratory results published in patent US20220111013A1, “COMPOUND DECREASING THE CONCENTRATION OF 2-HYDROXY-GLUTARATE” (Universität Heidelberg, priority 2019, published 2022).
# “Also recorded” adds a separate entry of the source. Positions of bridges follow the written chain, without caps; N, C: chain ends. No end group written: not given here.
# Columns and labels:
# [1] = tested on: primary neonatal rat ventricular cardiomyocytes (NRVCMs); assay: Measurement of mitochondrial ROS production with MitoSOX in NRVCM; format: cell-based; conditions: ET-1 stimulation 200 μmol/l for 24 hours, compared to control
# Procedure: NRVCMs were isolated and prepared as published previously (Rangrez et al. 2013). Briefly, left ventricles from 1-2 days old Wistar rats (Charles River) were harvested and cut in pH 7.4 buffer containing 120 mmol/liter NaCl, 20 mmol/liter Hepes, 8 mmol/liter NaH2PO4, 6 mmol/liter glucose, 5 mmol/liter KCl, and 0.8 mmol/liter MgSO4. The separation of single cardiomyocyte from cut tissue mass, was achieved by enzymatic digestion with 0.6 mg/ml pancreatin (Sigma) at 37° C. and 0.5 mg/ml collagenase type 11 (Worthington). Cell suspension was filtered by a cell strainer. Newborn calf serum was added to stop enzymatic digestion. In order to separate cardiomyocytes from fibroblasts, a Percoll gradient (GE Healthcare) centrifugation step was performed. Afterwards, cardiomyocytes were cultured in DMEM medium containing 10% fetal calf serum (FCS), 2 mM penicillin/streptomycin, and L-glutamine (PAA Laboratories). […]
# MitoSOX was applied to culture medium to a final concentration of 0.5 μM and cells were incubated for 15 minutes at 37° C. […] The fluorescence (red) was detected (Ex: 400 nm, Em at 590 nm) using confocal microscopy (Zeiss LSM 800). Mean fluorescence intensity (MFI) was calculated from the total fluorescence intensity detected from viable cells and divided by the number of cells using the software generated by Image J software (NIH, Bethesda, Md., USA).
# [2] = tested on: primary rat neonatal fibroblasts; assay: L-2HG on fibroblast proliferation and collagen synthesis; format: cell-based; conditions: disodium salt; for collagen3a1 expression: Western blot, non-treated fibroblasts as control; for fibroblast proliferation, Ki67-positive nuclei: immunocytochemistry
# [3] = tested on: NRVCMs; assay: Mitochondrial membrane potential (TMRE) in NRVCMs; format: cell-based, rat; conditions: L-2HG treatment, live cell monitoring
# Procedure: In additional experiments, […] were transduced with AAV6 vectors, either overexpressing L2HGDH or luciferase (Luc) as control at the M01=10^5 vp/cell. Three days after transduction L-2HG (Sigma-Aldrich) was applied to cell culture medium to a final concentration of 2 mM. Cells were harvested 2 days after treatment. […] were maintained in μ-Slide 8-wells, (Ibidi), suitable for live cell imaging. Cells were incubated with tetramethylrhodamine (TMRE) at 37° C. to a concentration of 50 nmol/L for 30 min. Afterwards, cells were washed with warm PBS and media was replaced with FluoroBrite DMEM (Thermo Fischer Scientific). Cells were imaged within 30 min (Ex: 549; Em: 574 nm).
# [4] = tested on: NRVCMs; assay: Mitochondrial membrane potential (JC-1) in NRVCMs; format: cell-based, rat; conditions: 2HG treatment
# Procedure: In additional experiments, […] were transduced with AAV6 vectors, either overexpressing L2HGDH or luciferase (Luc) as control at the M01=10^5 vp/cell. Three days after transduction L-2HG (Sigma-Aldrich) was applied to cell culture medium to a final concentration of 2 mM. Cells were harvested 2 days after treatment. Similarly, JC-1 was applied to cell culture medium to a concentration of 1 μmol/L and cells were incubated at 37° C. for 30 min. After washing with warm PBS, cells were imaged in FluoroBrite DMEM (J-monomers Ex:485; Em:535/J-aggregates Ex: 530; Em:590) using a confocal microscope (LSM800, Zeiss). Mean fluorescence intensity was analysed using ImageJ.
# [5] = tested on: NRVCMs; assay: 2HG induced cardiomyocyte hypertrophy in NRVCMs with AAV6 transduction; format: cell-based, rat; conditions: L-2HG 2 mM, 2 days
# Procedure: (§1) RNA was extracted and purified from frozen mouse heart using Trizol reagent (QIAzol lysis reagent, Qiagen) following manufacturer's instructions, followed by DnaseI digestion. Nucleic acid yields were analyzed photometrically (NanoDrop ND-1000, Spectrophotometer). 1.5 μg RNA was reverse transcribed into cDNA using Superscript III Kit (Invitrogen) and oligo(dT) Primers. cDNA synthesis was followed by RNA digestion using RNase H. qRT-PCR was executed using iTaq Universal SYBR Green Supermix (Thermo Fisher Scientific) and CFX96 Touch Real-Time PCR detection system (Bio Rad) as previously described (Doehner 2014). The following primers used for cDNA relative quantification are listed below.
# In additional experiments, NRVCMs were transduced with AAV6 vectors, either overexpressing L2HGDH or luciferase (Luc) as control at the M01=10^5 vp/cell. Three days after transduction L-2HG (Sigma-Aldrich) was applied to cell culture medium to a final concentration of 2 mM. Cells were harvested 2 days after treatment.
# Cardiomyocytes were fixed with 4% PFA and blocked in 2.5% BSA in PBS including 0.1% Triton. Next NRVCMs were incubated with monoclonal mouse anti-α-actinin (1:200 in 2.5% BSA in PBS; Sigma) antibody for 1 hour at room temperature. After washing with PBS, secondary antibody conjugated to Alexa Fluor-546 (Thermo Fisher Scientific) together with nuclear stain DAPI (Sigma-Aldrich) at a dilution of 1:200 or 1:1000 respectively in 2.5% BSA in PBS were applied and incubated for 1 h. Afterwards, coverslips were mounted using FluorPreserve reagent (Merck Millipore). Florescence graphs were collected with Keyence fluorescence microscope BZ-9000 at ×10 magnification (objective: CFI Plan Apochromat λ×10; Nikon) and BZ-II viewer software (Keyence, version 2.1). 10 pictures were taken from each coverslip. BZ-II Analyzer (version 2.1) were used to process and analyze the graphs. HybridCellCount module and fluorescence intensity singe-extraction mode were applied for cell size measurement.
# [6] = biological target: T1, Tet2 (Rattus norvegicus, UniProt A0ABK0LWH5); assay: Assessment of hydroxymethylation status of cytosine (5mC-Hydroxylase TET activity kit) after 2-HG treatment; format: cell-based; conditions: nuclear extracts of NRVCMs after 2-HG treatment
# T1 construct: nuclear extracts isolated from NRVCMs; endogenous in cells; host or cells: primary neonatal rat ventricular cardiomyocytes (NRVCMs), nuclear extract
# Procedure: Epigenase 5mC-Hydroxylase TET Activity/Inhibition Assay Kit was employed to analyse Tet2 activity in nuclear extracts isolated from NRVCMs after 2-HG treatment. Cell fractionation was performed according to standard REAP protocol (Suzuki et al. 2010). The measurement of hydroxymethylcytosine (hmC) amount was performed according to manufacturer's instructions. 50 μg of nuclear protein was used per sample.
# [7] = tested on: NRVCMs; assay: Pro-hypertrophic effects of 2-HG on NRVCMs (cell size, ANP and BNP mRNA); format: cell-based, rat; conditions: 2 days
# Procedure: as §1
# NRVCMs were isolated and prepared as published previously (Rangrez et al. 2013). […]
# Cardiomyocytes were fixed with 4% PFA and blocked in 2.5% BSA in PBS including 0.1% Triton. […] Florescence graphs were collected with Keyence fluorescence microscope BZ-9000 at ×10 magnification (objective: CFI Plan Apochromat λ×10; Nikon) and BZ-II viewer software (Keyence, version 2.1). […] HybridCellCount module and fluorescence intensity singe-extraction mode were applied for cell size measurement.
# [8] = tested on: L2HGDH; assay: Gene expression analysis of L2HGDH in Ang-II infusion mice model; format: in vivo; conditions: Ang-II infusion mice vs controls
# Procedure: as §1
# T1 sequence (A0ABK0LWH5 1-1959): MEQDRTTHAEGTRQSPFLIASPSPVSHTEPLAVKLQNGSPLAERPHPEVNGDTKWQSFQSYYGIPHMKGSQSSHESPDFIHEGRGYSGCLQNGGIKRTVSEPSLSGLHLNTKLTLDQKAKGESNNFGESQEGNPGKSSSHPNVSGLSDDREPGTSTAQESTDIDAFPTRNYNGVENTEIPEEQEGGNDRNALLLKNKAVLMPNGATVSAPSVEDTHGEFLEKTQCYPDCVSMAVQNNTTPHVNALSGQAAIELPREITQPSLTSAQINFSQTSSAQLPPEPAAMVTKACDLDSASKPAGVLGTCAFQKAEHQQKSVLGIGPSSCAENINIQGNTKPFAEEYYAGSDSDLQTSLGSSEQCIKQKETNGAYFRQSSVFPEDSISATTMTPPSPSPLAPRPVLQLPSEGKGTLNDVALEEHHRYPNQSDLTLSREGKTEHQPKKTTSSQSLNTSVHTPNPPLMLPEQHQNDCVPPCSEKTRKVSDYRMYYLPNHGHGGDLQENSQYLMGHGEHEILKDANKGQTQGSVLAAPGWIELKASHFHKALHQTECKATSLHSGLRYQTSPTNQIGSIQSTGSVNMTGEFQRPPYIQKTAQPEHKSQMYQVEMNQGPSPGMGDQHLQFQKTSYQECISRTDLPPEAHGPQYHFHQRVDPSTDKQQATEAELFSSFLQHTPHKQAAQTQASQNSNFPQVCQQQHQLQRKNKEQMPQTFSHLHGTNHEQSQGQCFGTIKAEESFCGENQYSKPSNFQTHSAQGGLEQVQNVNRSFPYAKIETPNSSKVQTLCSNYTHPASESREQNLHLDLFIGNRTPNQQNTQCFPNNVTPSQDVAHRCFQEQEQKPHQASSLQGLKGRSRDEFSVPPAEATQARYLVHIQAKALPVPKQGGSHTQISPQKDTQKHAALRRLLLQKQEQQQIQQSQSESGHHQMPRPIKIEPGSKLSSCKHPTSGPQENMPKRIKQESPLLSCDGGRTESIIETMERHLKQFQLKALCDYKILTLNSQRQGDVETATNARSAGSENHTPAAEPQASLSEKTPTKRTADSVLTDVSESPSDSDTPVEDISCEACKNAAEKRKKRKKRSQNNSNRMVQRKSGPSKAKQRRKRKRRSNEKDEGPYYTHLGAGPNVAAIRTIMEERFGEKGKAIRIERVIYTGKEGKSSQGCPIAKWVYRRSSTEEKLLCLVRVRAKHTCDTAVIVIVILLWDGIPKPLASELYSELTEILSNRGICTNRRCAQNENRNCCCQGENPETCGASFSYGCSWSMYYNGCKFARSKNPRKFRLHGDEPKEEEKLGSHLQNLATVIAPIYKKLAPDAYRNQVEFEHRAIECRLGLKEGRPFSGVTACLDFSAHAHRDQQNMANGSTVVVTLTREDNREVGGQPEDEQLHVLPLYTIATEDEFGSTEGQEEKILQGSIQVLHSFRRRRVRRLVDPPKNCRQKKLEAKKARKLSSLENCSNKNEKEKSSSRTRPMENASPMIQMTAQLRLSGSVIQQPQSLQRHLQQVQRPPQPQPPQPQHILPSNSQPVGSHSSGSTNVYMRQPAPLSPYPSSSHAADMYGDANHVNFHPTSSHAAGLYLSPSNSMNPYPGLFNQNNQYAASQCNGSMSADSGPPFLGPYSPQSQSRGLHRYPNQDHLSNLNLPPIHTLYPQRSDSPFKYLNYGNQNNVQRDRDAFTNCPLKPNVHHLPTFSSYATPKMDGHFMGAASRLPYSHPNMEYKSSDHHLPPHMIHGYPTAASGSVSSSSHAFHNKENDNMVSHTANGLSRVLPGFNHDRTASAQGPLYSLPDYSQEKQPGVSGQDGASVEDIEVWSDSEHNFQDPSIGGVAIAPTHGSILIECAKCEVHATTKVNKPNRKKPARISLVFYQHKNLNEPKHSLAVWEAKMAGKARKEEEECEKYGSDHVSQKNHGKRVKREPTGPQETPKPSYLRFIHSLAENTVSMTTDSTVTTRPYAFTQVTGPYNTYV
molecule,measurement,setting,value
"ET-1: hypertrophic stimulation applied to NRVCMs in serum-free medium (CSCSSLMDKECVYFCHLDIIW; disulfide 1-15, 3-11; ends not checked; UniProt P05305 53-73, looked up)",MitoSOX fluorescence level (ROS production),[1],significant increase
"O=C([O-])CC[C@H](O)C(=O)[O-].[Na+].[Na+] [2-HG, L-α-Hydroxyglutaric acid disodium salt]",collagen3a1 expression,[2],induces
same,collagen3a1 expression,[2]; listed as L-2HG,significant increased
same,"fibroblast proliferation, Ki67-positive nuclei",[2],induces
same,"fibroblast proliferation, Ki67-positive nuclei",[2]; listed as L-2HG,dramatic increased
same,TMRE fluorescence (mitochondrial membrane potential),[3],time-dependent decrease
same,JC-1 green/red mean fluorescence intensity (mitochondrial polarization),[4],mitochondrial depolarization
same,cell size,[5],increased
same,mRNA levels of pro-hypertrophic markers,[5],increased
same,induction of hypertrophy in NRVCMs,[5]; disodium salt,marked induction; also recorded: pro-hypertrophic
same,epigenetic 5-hmC deposition,[6],increased
same,cell size,"[7]; 2-HG 2 mM in serum-free medium, vs non-treated cells",dramatic increase
same,"fetal gene program, ANP and BNP mRNA",[7]; 2-HG 2 mM,marked increase
"Ang-II: infused to give the Ang-II infusion mice model of cardiac hypertrophy (DRVYIHPF; Angiotensin-2; UniProt P01019 25-32, looked up)",down-regulation in L2HGDH mRNA level,[8],35%
